This note sets out measurements from US7858644B2, “EP4 receptor antagonists” (Asterand UK Limited, priority 2003, dated 2010).

SMILES strings stand for the structures.

One experiment concerns the target T1, human EP4 receptor (Homo sapiens, UniProt P35408).
T1 construct: expressed in transfected cells
Briefly: Binding ability to human EP4 receptor ([3H]PGE2 displacement). The note with it: read-out: pKi EP4 (converted). How it is done: (§1) Membranes were prepared from cells stably transfected with human EP receptor cDNA. In brief, cells were cultured to confluency, scraped from culture flasks, and centrifuged (800 g, 8 minutes, 4° C.). Cells were twice washed in ice cold homogenisation buffer containing 10 mMTris-HCl, 1 mM EDTA. 2Na, 250 mM sucrose, 1 mM PMSF, 0.3 mM indomethacin, pH 7.4, homogenised and re-centrifuged as before. The supernatant was stored on ice and pellets re-homogenised and re-spun. Supernatants were pooled and centrifuged at 40000 g, 10 minutes, 4° C. Resultant membrane pellets were stored at −80° C. until use.
(§2) Incubations were performed at suitable temperatures and for suitable times to allow equilibrium to be reached. Non-specific binding was determined in the presence of 10 uM PGE2. Bound and free radiolabel was separated by vacuum manifold filtration using appropriate wash buffers, and bound radiolabel was determined by scintillation counting. Constituents of each of the buffers are included in table 1 below.
(§3) This approach follows that set out in Kenakin, T. P., Pharmacologic analysis of drug receptor interaction. Raven Press, New York, 2nd edition.

A further experiment addresses T2, human EP2 receptor (Homo sapiens, UniProt P43116).
T2 construct: expressed in transfected cells
Briefly: Binding ability to human EP2 receptor ([3H]PGE2 displacement). The note with it: read-out: pKi EP2 (converted). The protocol:
as §1
as §2, with “For assay, membranes expressing human EP4, EP3, EP2 or EP1 receptors were incubated in Millipore (MHVBN45) plates containing assay buffer, radiolabelled [^3H]PGE2 and 0.1 to 10 000 nM concentrations of compounds. Incubations” for “Incubations”
as §3

For another experiment, the target named is T3, human EP3 receptor (Homo sapiens, UniProt P43115).
T3 construct: expressed in transfected cells
T3 sequence (P43115 1-390): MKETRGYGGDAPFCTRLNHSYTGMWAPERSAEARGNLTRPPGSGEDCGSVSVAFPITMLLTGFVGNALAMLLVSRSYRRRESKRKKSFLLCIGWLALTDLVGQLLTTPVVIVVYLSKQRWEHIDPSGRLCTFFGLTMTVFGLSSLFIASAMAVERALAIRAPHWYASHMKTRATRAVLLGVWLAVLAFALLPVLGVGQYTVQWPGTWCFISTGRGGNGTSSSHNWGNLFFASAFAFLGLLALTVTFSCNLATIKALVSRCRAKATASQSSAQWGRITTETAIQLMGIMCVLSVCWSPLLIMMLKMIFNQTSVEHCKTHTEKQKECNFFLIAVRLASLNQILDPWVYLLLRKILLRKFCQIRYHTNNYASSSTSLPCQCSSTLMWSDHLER
Briefly: Binding ability to human EP3 receptor ([3H]PGE2 displacement). The note with it: membranes from cells stably transfected with human EP receptor cDNA; [3H]PGE2 2.5 nM; Cheng-Prusoff from IC50; read-out: pKi EP3 (converted). The protocol: as §1
as §2, with “For assay, membranes expressing human EP4, EP3, EP2 or EP1 receptors were incubated in Millipore (MHVBN45) plates containing assay buffer, radiolabelled [^3H]PGE2 and 0.1 to 10 000 nM concentrations of compounds. Incubations” for “Incubations”
as §3

T2 sequence (P43116 whole entry): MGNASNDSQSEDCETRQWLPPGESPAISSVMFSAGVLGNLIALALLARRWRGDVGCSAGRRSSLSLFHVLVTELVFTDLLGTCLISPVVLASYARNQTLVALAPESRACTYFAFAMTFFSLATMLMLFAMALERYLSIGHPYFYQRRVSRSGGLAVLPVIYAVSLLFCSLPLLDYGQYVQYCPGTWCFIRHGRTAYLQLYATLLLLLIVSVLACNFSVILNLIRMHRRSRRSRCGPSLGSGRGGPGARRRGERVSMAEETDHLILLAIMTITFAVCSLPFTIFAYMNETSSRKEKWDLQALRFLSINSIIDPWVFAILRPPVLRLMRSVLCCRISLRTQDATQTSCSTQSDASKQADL
T1 sequence (P35408 whole entry): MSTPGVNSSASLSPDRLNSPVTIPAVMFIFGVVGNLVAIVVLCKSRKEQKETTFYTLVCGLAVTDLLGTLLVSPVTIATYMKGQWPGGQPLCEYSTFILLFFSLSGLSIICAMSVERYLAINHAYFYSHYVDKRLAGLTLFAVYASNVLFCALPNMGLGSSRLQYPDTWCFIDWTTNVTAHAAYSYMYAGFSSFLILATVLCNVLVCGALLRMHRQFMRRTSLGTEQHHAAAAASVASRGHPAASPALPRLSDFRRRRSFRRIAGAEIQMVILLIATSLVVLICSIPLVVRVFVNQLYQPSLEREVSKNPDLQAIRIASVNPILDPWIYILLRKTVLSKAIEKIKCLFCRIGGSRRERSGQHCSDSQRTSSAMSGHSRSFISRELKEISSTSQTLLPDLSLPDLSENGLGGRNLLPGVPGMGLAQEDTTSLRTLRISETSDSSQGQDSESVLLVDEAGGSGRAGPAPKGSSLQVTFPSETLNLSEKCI

For the molecule `Cc1oc(C(=O)O)cc1COc1ccc(-c2ccc(N(C)C)cc2)cc1` [Compound 113, 4-(4′-Dimethylamino-biphenyl-4-yloxymethyl)-5-methyl-furan-2-carboxylic acid], the Ki at human EP4 receptor was below 10 µM; at human EP2 receptor, above 10 µM; on human EP3 receptor, above 10 µM.

As for `Cc1oc(S(=O)(=O)NC(=O)c2ccncc2)cc1COc1ccc(-c2ccccc2)cc1` [Compound 67, 4-(Biphenyl-4-yloxymethyl)-5-methyl-furan-2-sulphonic acid (pyridine-4-carbonyl)-amide], the figures for the Ki on human EP4 receptor, at human EP2 receptor and at human EP3 receptor were below 1 µM, above 10 µM and above 10 µM, respectively.

Consider `Cc1ccccc1S(=O)(=O)NC(=O)c1cc(C[S+]([O-])c2ccc(-c3ccc(OC(F)F)cc3)cc2)c(C)o1` (centres unmarked) [Compound 156, N-[4-(4′-Difluoromethoxy-biphenyl-4-ylsulphinylmethyl)-5-methyl-furan-2-carbonyl]-2-methyl-benzenesulphonamide], for which the results for the Ki at human EP4 receptor, at human EP2 receptor and on human EP3 receptor were below 10 µM, above 10 µM and above 10 µM, respectively.

As to `Cc1oc(S(=O)(=O)NC(=O)Cc2ccccc2)cc1COc1ccc(-c2ccccc2)cc1` [Compound 62, 4-(Biphenyl-4-yloxymethyl)-5-methyl-furan-2-sulphonic acid phenylacetyl-amide], the Ki is below 0.1 µM on human EP4 receptor, above 10 µM at human EP2 receptor and above 10 µM at human EP3 receptor.

With `Cc1oc(C(=O)O)cc1COc1ccc(-c2ccccc2C(F)(F)F)cc1` [Compound 102, 5-Methyl-4-(2′-trifluoromethyl-biphenyl-4-yloxymethyl)-furan-2-carboxylic acid], the values for the Ki on human EP4 receptor, on human EP2 receptor and at human EP3 receptor were below 3.16 µM, above 3.16 µM and above 10 µM, respectively.

As for `Cc1oc(C(=O)NS(=O)(=O)c2ccccc2)cc1CSc1ccc(-c2ccc(OC(F)F)cc2)cc1` [Compound 155, N-[4-(4′-Difluoromethoxy-biphenyl-4-ylsulphanylmethyl)-5-methyl-furan-2-carbonyl]-benzenesulphonamide], the Ki on human EP4 receptor is below 1 µM; on human EP2 receptor, above 3.16 µM; on human EP3 receptor it was above 3.16 µM.

In the case of `Cc1oc(C(=O)O)cc1COc1ccc(-c2ncccn2)cc1` [Compound 137, 5-Methyl-4-(4-pyrimidin-2-yl-phenoxymethyl)-furan-2-carboxylic acid], the Ki on human EP4 receptor is below 10 µM; at human EP2 receptor, above 10 µM; on human EP3 receptor, above 10 µM.

As to `Cc1ccccc1S(=O)(=O)NC(=O)c1cc(CS(=O)(=O)c2ccc(-c3ccc(OC(F)F)cc3)cc2)c(C)o1` [Compound 156a, N-[4-(4′-Difluoromethoxy-biphenyl-4-sulfonylmethyl)-5-methyl-furan-2-carbonyl]-2-methyl-benzenesulfonamide], the Ki is below 10 µM at human EP4 receptor, above 10 µM at human EP2 receptor and above 10 µM at human EP3 receptor.

With `Cc1oc(C(=O)O)cc1COc1ccc(-c2ccccc2OC(F)(F)F)cc1` [Compound 115, 5-Methyl-4-(2′-trifluoromethoxy-biphenyl-4-yloxymethyl)-furan-2-carboxylic acid], the values for the Ki at human EP4 receptor, at human EP2 receptor and at human EP3 receptor were below 10 µM, above 10 µM and above 10 µM, respectively.

For the molecule `Cc1oc(C(=O)O)cc1COc1ccc(-c2ccc(F)cc2)cc1` [Compound 118, 4-(4′-Fluoro-biphenyl-4-yloxymethyl)-5-methyl-furan-2-carboxylic acid], the results for the Ki on human EP4 receptor, on human EP2 receptor and on human EP3 receptor were below 1 µM, above 10 µM and above 10 µM, respectively.

Regarding `COc1ccc(-c2ccc(OCc3cc(C(=O)O)oc3C)cc2)nc1` [Compound 53, 4-[4-(5-Methoxy-pyridin-2-yl)-phenoxymethyl]-5-methyl-furan-2-carboxylic acid], the Ki on human EP2 receptor and at human EP3 receptor was above 10 µM throughout.

Turning to `COc1ccc(-c2ccc(OCc3cc(C(=O)NS(=O)(=O)c4c(C)noc4C)oc3C)cc2)cc1` [Compound 9, 3,5-Dimethyl-isoxazole-4-sulfonic acid [4-(4′-methoxy-biphenyl-4-yloxymethyl)-5-methyl-furan-2-carbonyl]-amide], the Ki on human EP2 receptor and on human EP3 receptor was above 10 µM in each case.

With `COc1ccc(-c2ccc(OCc3cc(C(=O)NS(=O)(=O)c4c(C)noc4C)oc3C)cc2)c(C)c1` [Compound 146, 3,5-Dimethyl-isoxazole-4-sulphonic acid [4-(4′-methoxy-2′-methyl-biphenyl-4-yloxymethyl)-5-methyl-furan-2-carbonyl]-amide], the Ki on human EP2 receptor and at human EP3 receptor was above 10 µM throughout.

Take `COc1ccc(-c2ccc(OCc3cc(C(=O)NS(=O)(=O)c4c(C)noc4C)oc3C)cc2)nc1` [Compound 133, 3,5-Dimethyl-isoxazole-4-sulphonic acid {4-[4-(5-methoxy-pyridin-2-yl)-phenoxymethyl]-5-methyl-furan-2-carbonyl}-amide]: the Ki at human EP2 receptor and on human EP3 receptor was above 10 µM in each case.

On to `COc1ccc(-c2ccc(OCc3cc(S(=O)(=O)NC(=O)c4c(C)noc4C)oc3C)cc2)cc1` [Compound 69, 4-(4′-Methoxy-biphenyl-4-yloxymethyl)-5-methyl-furan-2-sulphonic acid (3,5-dimethyl-isoxazole-4-carbonyl)-amide], for which, at human EP4 receptor, the Ki is below 0.1 µM.

For the molecule `CC(=O)c1ccc(-c2ccc(OCc3cc(C(=O)NS(=O)(=O)c4ccccc4)oc3C)cc2)cc1` [Compound 22, N-[4-(4′-Acetyl-biphenyl-4-yloxymethyl)-5-methyl-furan-2-carbonyl]-benzenesulfonamide], the Ki on human EP2 receptor and at human EP3 receptor was above 10 µM each time.

Take `Cc1oc(C(=O)NS(=O)(=O)c2ccccc2)cc1COc1ccc(-c2ccccc2)cc1` [Compound 19, N-[4-(Biphenyl-4-yloxymethyl)-5-methyl-furan-2-carbonyl]-benzenesulfonamide]: the Ki on human EP2 receptor and at human EP3 receptor was above 10 µM each time.

As for `COc1cccc(-c2ccc(OCc3cc(C(=O)O)oc3C)cc2)c1` [Compound 116, 4-(3′-Methoxy-biphenyl-4-yloxymethyl)-5-methyl-furan-2-carboxylic acid], the Ki on human EP2 receptor and on human EP3 receptor was above 10 µM in each case.

`COc1ccc(-c2ccc(OCc3cc(C(=O)NS(=O)(=O)c4ccccc4)oc3C)cc2)c(C)c1` [Compound 145, N-[4-(4′-Methoxy-2′-methyl-biphenyl-4-yloxymethyl)-5-methyl-furan-2-carbonyl]-benzenesulphonamide]: the Ki at human EP2 receptor and at human EP3 receptor was above 10 µM in each case.

For `Cc1oc(CCC(=O)O)cc1COc1ccc(-c2ccccc2)cc1` [Compound 37, 3-[4-(Biphenyl-4-yloxymethyl)-5-methyl-furan-2-yl]-propionic acid], the Ki at human EP2 receptor and at human EP3 receptor was above 10 µM each time.

`COc1ccc(-c2ccc(OCc3cc(C(=O)O)oc3C)cc2)cc1OC` [Compound 96, 4-(3′,4′-Dimethoxy-biphenyl-4-yloxymethyl)-5-methyl-furan-2-carboxylic acid]: the Ki on human EP2 receptor and on human EP3 receptor was above 10 µM throughout.

With `Cc1oc(C(=O)NS(=O)(=O)c2ccccc2)cc1COc1ccc(-c2ccc(OC(F)F)cc2)cc1` [Compound 130, N-[4-(4′-Difluoromethoxy-biphenyl-4-yloxymethyl)-5-methyl-furan-2-carbonyl]-benzenesulphonamide], the Ki is above 3.16 µM at human EP2 receptor and above 10 µM at human EP3 receptor.

Turning to `COc1ccccc1-c1ccc(OCc2cc(C(=O)O)oc2C)cc1` [Compound 126, 4-(2′-Methoxy-biphenyl-4-yloxymethyl)-5-methyl-furan-2-carboxylic acid], the Ki at human EP2 receptor and at human EP3 receptor was above 10 µM in each case.

For `Cc1oc(C(=O)O)cc1CCOc1ccc(-c2ccccc2)cc1` [Compound 72, 4-[2-(Biphenyl-4-yloxy)-ethyl]-5-methyl-furan-2-carboxylic acid], the Ki at human EP2 receptor and on human EP3 receptor was above 10 µM each time.

Take `CC(C)c1oc(C(=O)O)cc1COc1ccc(-c2ccccc2)cc1` [Compound 85, 4-(Biphenyl-4-yloxymethyl)-5-isopropyl-furan-2-carboxylic acid]: the Ki at human EP2 receptor and on human EP3 receptor was above 10 µM throughout.
